Structures are written as SMILES. Calls of active or inactive are those of the source. The rule behind the calls is not given here.

In one assay the test system is CNE-2. Briefly: Cytotoxicity against human CNE2 cells assessed as reduction in cell viability after 3 days by MTT assay. It is filed as functional, cell-based. (In general: Tetrazolium dyes change colour on reduction, which living cells bring about.)
Another assay concerns CNE. Briefly: Cytotoxicity against human CNE1 cells assessed as reduction in cell viability after 3 days by MTT assay. It is filed as functional, cell-based.

By IC50 is commonly meant the point on the concentration scale where inhibition reaches its midpoint. In the case of `C[C@@H]1CC[C@H]2C(C)(C)CCC[C@]2(C)[C@@]1(O)CCc1cc[nH]c1C#N`, the IC50 in the assay on CNE-2 (CNE-2, 72 h) is > 10 µM; in the assay with CNE (72 h), 8.7 µM.
Turning to `CC(=O)O[C@H]1CC[C@@]2(C)[C@@H](CC[C@@H](C)[C@]2(O)CCc2ccn(CCCC(=O)O)c2C#N)C1(C)C`, the outcome in the assay on CNE-2 and in the assay on CNE was inactive.
Regarding `CC(=O)O[C@@H]1C[C@@H](C)[C@](O)(CCc2ccn(CCO)c2C#N)[C@@]2(C)CCCC(C)(C)[C@H]12`, the outcome with CNE-2 and with CNE was inactive.
As for `CCOC(=O)CCCn1ccc(CC[C@@]2(O)[C@H](C)CC[C@H]3C(C)(C)CCC[C@@]32C)c1C#N`, the outcome in the assay with CNE-2 and in the assay with CNE was inactive.

Values taken from ChEMBL document CHEMBL4118045, “Vitepyrroloids A-D, 2-Cyanopyrrole-Containing Labdane Diterpenoid Alkaloids from the Leaves of Vitex trifolia” (J Nat Prod, 2017).
